Test results reported in patent publication US7534871B2, “Preparation and use of carbohydrate-based bicyclic ring structures with antimicrobial and cytostatic activity” (Kemin Pharma B.V.B.A., priority 2004, dated 2009).
Converted amounts (≈) assume the structure as drawn. Like-named read-outs stand apart in the source and are kept apart here.

What was measured:
[1] = tested on: MRSA ATCC33591; assay: Anti-bacterial activity, Bioscreen C growth curve: MRSA; format: cell-based, methicillin-resistant Staphylococcus aureus (MRSA); conditions: Staphylococcus aureus, ATCC 33591 / LMG10147 / MRSA; 25 PPM; 35° C., 16 hours; negative control = 100; read-out: % of growth at 25 PPM compared to the negative control, MRSA ATCC33591 LMG10147
Experimental: (§1) For the determination of the anti-bacterial and anti-fungal activity the Bioscreen C Analyser Labsystems, Finland, was used. This is an automated reader-incubator. It measures growth continuously by vertical photometry (optical density), processes the data and provides a print out of the results. The area under the growth curve is automatically determined via the Biolink software.
(§2) The inoculum size of the bacteria is standardized to approximately 5×10^5 CFU/ml.
(§3) For bacteria, the 100-honey-well plates containing test chemical, Mueller-Hinton broth and inoculum (=sample) are incubated at 35° C. for 16 hours. Also wells without inoculum are incubated (=blanco). Yeasts are incubated 35° C. for 24 hours in RPMI 1640+MOPS buffer at 165 mM. Moulds also in RPMI 1640+MOPS buffer at 165 mM are incubated 25° C. for 5 days. All micro-organisms are screened against a known concentration of the reference antibiotics or antimycotics such as vancomycin, penicillin G, gentamicin or amphotericin B. The growth curve and the area under the growth curve can be determined using the Biolink software; this is illustrated in FIG. 1.
(§4) The area of the blanco is subtracted from the area of the sample, this number (delta) gives us an indication of the biological activity of the molecules tested and can be expressed as a % of growth at a specific dose compared to a negative control that has a value of 100, illustrated in FIG. 2. Screening of each dose of a specific compound is repeated 5 times. The dose used for all new molecules in all tests is 25 PPM or 25 μg/ml.
(§5) In Table 4 the results of the anti-bacterial activity is given for the new molecules. The micro-organisms used are Staphylococcus aureus, MRSA, VRE, Enterococcus faecalis, Salmonella typhimurium and Pseudomonas aeruginosa.

[2] = tested on: S. typhimurium ATTC700408; assay: Anti-bacterial activity, Bioscreen C growth curve: S. typhimurium; format: cell-based; conditions: Salmonella enterica, LMG16217 / TYPHIMURIUM, 35° C., 16 hours, negative control = 100, read-out: % of growth at 25 PPM compared to the negative control, S. typhimurium ATTC700408 LMG16217
Experimental: as §1, §2, §3, §4, §5

[3] = tested on: HSV-2 (G); assay: Anti-viral activity: HSV-2-induced cytopathicity in human embryo fibroblast E6SM cell cultures; format: cell-based, herpes simplex virus (HSV); conditions: Human alphaherpesvirus 2, 50%
[4] = tested on: HIV-2 (ROD); assay: Anti-viral activity: HIV-2-induced cytopathicity in human CEM cell cultures; format: cell-based; conditions: Human immunodeficiency virus 2, CCRF-CEM; concentration required to inhibit HIV-induced cytopathicity in human CEM cell cultures by 50%
[5] = tested on: P. aeruginosa ATCC27853 LMG16217; assay: Anti-bacterial activity, Bioscreen C growth curve: P. aeruginosa; format: cell-based, Pseudomonas aeruginosa; conditions: for activity at 25 ppm: Pseudomonas aeruginosa, 35° C., 16 hours, negative control = 100, read-out: % of growth at 25 PPM compared to the negative control, P. aeruginosa ATCC27853 LMG16217
Experimental: as §1, §2, §3, §4, §5

[6] = tested on: VRE ATCC700221; assay: Anti-bacterial activity, Bioscreen C growth curve: VRE; format: cell-based, vancomycin-resistant Enterococcus (VRE); conditions: Enterococcus, 35° C., 16 hours, negative control = 100, read-out: % of growth at 25 PPM compared to the negative control, VRE ATCC700221
Experimental: as §1, §2, §3, §4, §5

[7] = tested on: VZV OKA; assay: microbe, parasite or virus in culture; format: cell-based, varicella zoster virus (VZV); conditions: for EC50: Human alphaherpesvirus 3, HEL, read-out: EC50 VZV (HEL) OKA
[8] = tested on: VV; assay: microbe, parasite or virus in culture; format: cell-based; conditions: Orthopoxvirus vaccinia, E6SM, read-out: EC50 VV (E6SM)
[9] = tested on: murine mammary carcinoma cells (FM3A); assay: Cytostatic activity: inhibition of proliferation of FM3A cells; format: cell-based; conditions: Mus musculus, read-out: IC50 FM3A/0
Experimental: (§6) The compounds were tested for anti-tumor activity via the inhibitory effects on the proliferation of murine leukemia cells (L1210/0), murine mammary carcinoma cells (FM3A), human T-lymphocyte cells (Molt4/C8, CEM/0) and human cervix carcinoma cells (HeLa).

[10] = tested on: VZV YS; assay: Anti-viral activity: VZV-induced plaque formation in HEL cell cultures, YS strain; format: cell-based, varicella zoster virus (VZV); conditions: Human alphaherpesvirus 3, VZV-induced plaque formation in human embryonic lung HEL cell cultures, 50%
[11] = tested on: E. faecalis ATTC29212 LMG 8222; assay: Anti-bacterial activity, Bioscreen C growth curve: E. faecalis; format: cell-based; conditions: Enterococcus faecalis, LMG8222, 35° C., 16 hours, negative control = 100, read-out: % of growth at 25 PPM compared to the negative control, E. faecalis ATTC29212 LMG 8222
Experimental: as §1, §2, §3, §4, §5

[12] = tested on: S. aureus ATTC29213 LMG10147; assay: Anti-bacterial activity, Bioscreen C growth curve: S. aureus; format: cell-based; conditions: Staphylococcus aureus, 35° C., 16 hours, negative control = 100, read-out: % of growth at 25 PPM compared to the negative control, S. aureus ATTC29213 LMG10147
Experimental: as §1, §2, §3, §4, §5

[13] = tested on: human T-lymphocyte cells (Molt4/C8); assay: Cytostatic activity: inhibition of proliferation of Molt4/C8 cells; format: cell-based
Experimental: as §6

[14] = tested on: Microsporum gypseum IHEM 3999 - ATCC 14683; assay: Anti-fungal activity, Bioscreen C growth curve: Microsporum gypseum (mold); format: cell-based; conditions: Nannizzia gypsea, ATCC14683, 120 h; 25 PPM; 25° C., 5 days; negative control = 100; read-out: % of growth at a dose of 25 PPM compared to the negative control, Microsporum gypseum IHEM 3999 - ATCC 14683
Experimental: as §1
The inoculum size of the mould is standardized to 0.4-5.0×10^4 CFU/ml.
as §3, §4
In Table 5 the anti-fungal activity is given for the new molecules. The micro-organisms used were Candida albicans (a typical yeast) and Microsporum gypseum (a typical mold).
as §1, with “Also for” for “For”, “the” for “the anti-bacterial and”, “Labsystems Oy, Finland” for “Labsystems, Finland,”, “used.” for “used. This is an automated reader-incubator.”
The inoculum size of the yeast is standardized to 0.5-2.5×10^3 CFU/ml. The inoculum size of the mould is standardized to 0.4-5.0×10^4 CFU/ml. Yeasts are incubated 35° C. for 24 hours in RPMI 1640+MOPS buffer at 165 mM. Moulds also in RPMI 1640+MOPS buffer at 165 mM are incubated 25° C. for 5 days.
As a control, all micro-organisms are screened against some reference antibiotics with known MIC. Screening of each dose of a specific compound is repeated 5 times.

[15] = 50% inhibitory concentration, cell proliferation
[16] = Molt4/C8, 50% inhibitory concentration, cell proliferation, read-out: IC50 Molt4/C8

Structure (SMILES) | activity at 25 ppm [1] | activity at 25 ppm [2] | EC50 [3] | EC50 [4] | activity at 25 ppm [5] | activity at 25 ppm [6] | EC50 [7] | EC50 [8] | IC50 [9, 15] | EC50 [10] | activity at 25 ppm [11] | activity at 25 ppm [12] | IC50 [13, 16] | activity at 25 ppm [14] | anti-bacterial activity against P. aeruginosa, in words ([5]; conclusion on Table 4) | anti-viral activity against VZV, in words ([7]; strain not named) | IC50 [9] | IC50 ([13]; Molt4/C8, read-out: IC50 Molt4/C8)
CO[C@@H]1[C@@H](OC)[C@H](c2ccccc2)O[C@@H]2CO[C@@H](c3ccccc3)O[C@@H]12 [KPE00001015] | 117% | 87.2% | > 80 µg/mL | > 4 µg/mL | 90.4% | 67.8% | 13 µg/mL (≈ 36.5 µM) | > 80 µg/mL | > 200 µg/mL | 14 µg/mL (≈ 39.3 µM) | 86% | 104% | 62 ± 3 µg/mL (≈ 174 µM) | 66% | – | – | – | –
CO[C@@H]1[C@@H](OC)[C@H](Sc2ccccc2)O[C@@H]2COC(=O)CCCC/C=C/CCCCC(=O)O[C@@H]12 [KPE00001016.1] | 115% | 76.4% | > 3.2 µg/mL | > 4 µg/mL | 29% | 61.8% | 5 µg/mL (≈ 10.1 µM) | > 3.2 µg/mL | 108 ± 9 µg/mL (≈ 219 µM) | 22 µg/mL (≈ 44.7 µM) | 76.5% | 103% | 39 ± 1 µg/mL (≈ 79.2 µM) | 74% | good anti-bacterial activity | especially active | – | –
CO[C@@H]1[C@@H](OC)[C@H](Sc2ccccc2)O[C@@H]2COC(=O)CCCC/C=C\CCCCC(=O)O[C@@H]12 [KPE00001016.2] | 104% | 87% | > 3.2 µg/mL | > 100 µg/mL | 79.8% | 81% | > 50 µg/mL | > 3.2 µg/mL | > 200 µg/mL | > 50 µg/mL | 98.4% | 97% | 78 ± 53 µg/mL (≈ 158 µM) | 58% | – | – | – | –
CO[C@@H]1[C@@H](OC)[C@H](Cc2ccccc2)O[C@@H]2CO[C@@H](c3ccccc3)O[C@@H]12 [KPE00001019] | 104% | 94.3% | > 80 µg/mL | > 100 µg/mL | 105% | 97% | > 5 µg/mL | > 80 µg/mL | > 200 µg/mL | > 5 µg/mL | 104% | 109% | ≥ 200 µg/mL | 66% | – | – | – | –
CO[C@@H]1[C@@H](OC)[C@H](Cc2ccccc2)O[C@@H]2COC(=O)CC/C=C/CCC(=O)O[C@@H]12 [KPE00001022] | 110% | 94% | 80 µg/mL (≈ 191 µM) | > 20 µg/mL | 90.9% | 87% | > 20 µg/mL | 80 µg/mL (≈ 191 µM) | – | > 20 µg/mL | 96.1% | 102% | – | 67% | – | – | 82 ± 14 µg/mL (≈ 196 µM) | 69 ± 6 µg/mL (≈ 165 µM)
CO[C@@H]1[C@@H](OC)[C@H](Cc2ccccc2)O[C@@H]2COC(=O)CCCCCCCCC=CCCCCCCCCC(=O)O[C@@H]12 [KPE00001031E] | 104% | 91.7% | > 400 µg/mL | > 20 µg/mL | 89.6% | 85.4% | > 5 µg/mL | > 400 µg/mL | ≥ 200 µg/mL | 15 µg/mL (≈ 25.6 µM) | 85.5% | 100% | ≥ 200 µg/mL | 62% | – | – | – | –
